Experimental findings from ChEMBL document CHEMBL1136931, “Discovery of low nanomolar and subnanomolar inhibitors of the mycobacterial beta-carbonic anhydrases Rv1284 and Rv3273” (J Med Chem, 2009) are described below.

Molecules are shown by their SMILES.

The target of assay [1] is T1, Beta-carbonic anhydrase 1 (Mycobacterium tuberculosis, UniProt P9WPJ7).
T1 sequence (P9WPJ7 whole entry): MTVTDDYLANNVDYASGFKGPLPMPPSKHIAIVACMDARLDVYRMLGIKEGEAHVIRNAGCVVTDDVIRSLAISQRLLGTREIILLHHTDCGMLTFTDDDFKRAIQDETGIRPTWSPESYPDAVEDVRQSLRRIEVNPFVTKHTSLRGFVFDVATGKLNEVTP

Another assay concerns the target Carbonic anhydrase 1 (Homo sapiens, UniProt P00915).
The target in the next assay is Carbonic anhydrase 2 (Homo sapiens, UniProt P00918).

Sequence of Carbonic anhydrase 1 (P00915 whole entry): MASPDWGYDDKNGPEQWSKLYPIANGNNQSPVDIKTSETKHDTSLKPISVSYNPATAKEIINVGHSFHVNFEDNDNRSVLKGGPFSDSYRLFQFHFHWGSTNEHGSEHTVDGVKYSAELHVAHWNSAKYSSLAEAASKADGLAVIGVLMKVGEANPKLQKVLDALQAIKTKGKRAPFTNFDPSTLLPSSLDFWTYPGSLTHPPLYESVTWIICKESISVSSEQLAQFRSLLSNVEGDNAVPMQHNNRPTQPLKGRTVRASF

With `NC(=O)c1[nH]c2ccc(S(N)(=O)=O)cc2c1-c1ccccc1`, the Ki was determined as 7.5 nM in assay [1], 48 nM at Carbonic anhydrase 1 and 31 nM at Carbonic anhydrase 2.

On Carbonic anhydrase 1, `NS(=O)(=O)c1ccc(S(=O)(=O)Nc2cccc3c(Cl)c[nH]c23)cc1` yielded a Ki of 97 nM.
